“Also recorded” adds a separate entry of the source. Like-named read-outs stand apart in the source and are kept apart here. Square brackets hold non-standard residues; d marks the D form. Peptide text beside a SMILES is read from it.
Experiments:
[1] = PK analysis of 8M2D in transgenic mice (APPSWE), plasma; settings: mouse, in vivo, sc
Source text: Pharmacokinetics (PK) of 8M2D was further analyzed with various doses at days 1 and 13 in transgenic mice (APPSWE (B6; SJL 2576 Kha; Taconic)). See Hsiao et al., Correlative memory deficits, Aβ elevation, and amyloid plaques in transgenic mice. Science 274:99-102 (1996); and Haugabook et al., Reduction of Abeta accumulation in the Tg2576 animal model of Alzheimer's disease after oral administration of the phosphatidyl-inositol kinase inhibitor wortmannin. Faseb J 15:16-18 (2001).

Aβ40 = experiment: Efficacy in reducing Aβ40 in rat plasma (ELISA); type: in vivo; settings: for reduction in Aβ40 / Percent Decrease in Aβ 40 in Rat Plasma: 10 mg/kg SC; for Percent Decrease in Aβ 40 in Rat Plasma: mean of 3 rats, negative = decrease
Method: Blood was collected through jugular vein cannulas, and the samples were collected into tubes with K2EDTA. After centrifuging at a temperature of 2 to 8° C. at 4,000×g for 5 minutes, the resulting plasma was split into equal aliquots, frozen, and stored at −60 to −80° C. One aliquot was for PK analysis and the other was for Aβ analysis (see Example 4).
Rats (n=3 per peptide) were administered with P8, 8M1D, or 8M2D (10 mg/kg) subcutaneously, and plasma were collected at 0, 6, 12, and 24 h after dosing and Aβ40 analysis was carried out by ELISA (Invitrogen).

[2] = Delivery to brain in transgenic mice (brain concentrations); type: in vivo; set-up: Brain Concentration / Brain Concentration, Mean: unit not given here
Method: Critical to the development of any therapeutic for diseases like AD is the requirement that it can be delivered to the brain. Delivery to brain and efficacy of P8 and 8M2D in reducing Aß was analyzed in the transgenic mice described in Section 6.3 above. […]

Aβ = experiment: Reduction of Aβ in retinal cells differentiated from iPSC derived from Alzheimer's disease patients; type: cell-based
Source text: The accumulation of Aβ in the retina was studied in this example. Retinal cells were differentiated from induced pluripotent stem (iPSC) cells derived from Alzheimer's disease patients.

- Vd/F ([1]; 10 mg/kg, Day 13, 10 mg/kg, read-out: Vz/F): 10.2 L/kg
- half-life ([1]; 10 mg/kg, Day 13, 10 mg/kg, read-out: t1/2 (converted)): 8.4 h
- AUC(0-t) ([1]; 50 mg/kg, Day 1, 50 mg/kg, read-out: AUClast): 70.5 µg·h/mL
- CL/F ([1]; 50 mg/kg, Day 1, 50 mg/kg, read-out: Cl/F): 11.8 mL/min/kg
- Cmax ([1]; 50 mg/kg, Day 1, 50 mg/kg, read-out: Cmax): 111 µg/mL
- Tmax ([1]; 50 mg/kg, Day 1, 50 mg/kg, read-out: Tmax): 0.17 h
- Vd/F ([1]; 50 mg/kg, Day 1, 50 mg/kg, read-out: Vz/F): 7.59 L/kg
- half-life ([1]; 50 mg/kg, Day 1, 50 mg/kg, read-out: t1/2 (converted)): 7.4 h
- AUC(0-t) ([1]; 50 mg/kg, Day 13, 50 mg/kg, read-out: AUClast): 49.7 µg·h/mL
- CL/F ([1]; 50 mg/kg, Day 13, 50 mg/kg, read-out: Cl/F): 12.9 mL/min/kg
- Cmax ([1]; 50 mg/kg, Day 13, 50 mg/kg, read-out: Cmax): 73 µg/mL
- Tmax ([1]; 50 mg/kg, Day 13, 50 mg/kg, read-out: Tmax): 0.17 h
- Vd/F ([1]; 50 mg/kg, Day 13, 50 mg/kg, read-out: Vz/F): 148 L/kg
- half-life ([1]; 50 mg/kg, Day 13, 50 mg/kg, read-out: t1/2 (converted)): 130 h
- AUC(0-t) ([1]; 250 mg/kg, Day 1, 250 mg/kg, read-out: AUClast): 176 µg·h/mL
- CL/F ([1]; 250 mg/kg, Day 1, 250 mg/kg, read-out: Cl/F): 23.6 mL/min/kg
- Cmax ([1]; 250 mg/kg, Day 1, 250 mg/kg, read-out: Cmax): 207 µg/mL
- Tmax ([1]; 250 mg/kg, Day 1, 250 mg/kg, read-out: Tmax): 0.17 h
- Vd/F ([1]; 250 mg/kg, Day 1, 250 mg/kg, read-out: Vz/F): 5.84 L/kg
- half-life ([1]; 250 mg/kg, Day 1, 250 mg/kg, read-out: t1/2 (converted)): 2.9 h
- AUC(0-t) ([1]; 250 mg/kg, Day 1, Mean over the 10, 50 and 250 mg/kg doses (N 3), read-out: AUClast, Mean): 86.4 µg·h/mL
- CL/F ([1]; 250 mg/kg, Day 1, Mean over the 10, 50 and 250 mg/kg doses (N 3), read-out: Cl/F, Mean): 16.1 mL/min/kg
- Cmax ([1]; 250 mg/kg, Day 1, Mean over the 10, 50 and 250 mg/kg doses (N 3), read-out: Cmax, Mean): 111 µg/mL
- Tmax ([1]; 250 mg/kg, Day 1, Mean over the 10, 50 and 250 mg/kg doses (N 3), read-out: Tmax, Mean): 0.167 h
- Vd/F ([1]; 250 mg/kg, Day 1, Mean over the 10, 50 and 250 mg/kg doses (N 3), read-out: Vz/F, Mean): 7.42 L/kg
- half-life ([1]; 250 mg/kg, Day 1, Mean over the 10, 50 and 250 mg/kg doses (N 3), read-out: t1/2, Mean (converted)): 6.06 h
- AUC(0-t) ([1]; 250 mg/kg, Day 13, 250 mg/kg, read-out: AUClast): 290 µg·h/mL
- CL/F ([1]; 250 mg/kg, Day 13, 250 mg/kg, read-out: Cl/F): 13.5 mL/min/kg
- Cmax ([1]; 250 mg/kg, Day 13, 250 mg/kg, read-out: Cmax): 278 µg/mL
- Tmax ([1]; 250 mg/kg, Day 13, 250 mg/kg, read-out: Tmax): 0.17 h
- Vd/F ([1]; 250 mg/kg, Day 13, 250 mg/kg, read-out: Vz/F): 33.4 L/kg
- half-life ([1]; 250 mg/kg, Day 13, 250 mg/kg, read-out: t1/2 (converted)): 29 h
- AUC(0-t) ([1]; 250 mg/kg, Day 13, Mean over the 10, 50 and 250 mg/kg doses (N 3), read-out: AUClast, Mean): 117 µg·h/mL
- CL/F ([1]; 250 mg/kg, Day 13, Mean over the 10, 50 and 250 mg/kg doses (N 3), read-out: Cl/F, Mean): 13.5 mL/min/kg
- Cmax ([1]; 250 mg/kg, Day 13, Mean over the 10, 50 and 250 mg/kg doses (N 3), read-out: Cmax, Mean): 121 µg/mL
- Tmax ([1]; 250 mg/kg, Day 13, Mean over the 10, 50 and 250 mg/kg doses (N 3), read-out: Tmax, Mean): 0.167 h
- Vd/F ([1]; 250 mg/kg, Day 13, Mean over the 10, 50 and 250 mg/kg doses (N 3), read-out: Vz/F, Mean): 63.8 L/kg
- half-life ([1]; 250 mg/kg, Day 13, Mean over the 10, 50 and 250 mg/kg doses (N 3), read-out: t1/2, Mean (converted)): 56.5 h
- Brain Concentration ([2]; transgenic mice, SC, dose 10 mg/kg, individual animals): BQL
- Brain Concentration, Mean ([2]; transgenic mice, SC, dose 50 mg/kg, N 2): 9.06
- Brain Concentration, Mean ([2]; transgenic mice, SC, dose 250 mg/kg, N 5): 15.4
SMILES: CC(=O)N[C@H](CC(=O)O)C(=O)N[C@@H](CCC(=O)O)C(=O)N[C@@H](CCC(=O)O)C(=O)N[C@@H](CCC(=O)O)C(=O)N[C@@H](CC(=O)O)C(=O)N[C@@H](CCC(=O)O)C(=O)N[C@@H](CCC(=O)O)C(=O)N[C@@H](CC(C)C)C(N)=O [8M2D, Ac-dEEEDEEL-NH2] (Ac-[dD]EEEDEEL-NH2)
- reduction in Aβ40 (Aβ40; rat plasma, 12 hr post dosing): about 35%
- reduction in Aβ40 (Aβ40; rat plasma, 24 h post dosing): about 27%
- reduction of Aβ40 compared with the other peptides (in words) (Aβ40; rat plasma, SC): more potent than P8 and 8M1D; also recorded: more effectively than P8 and 8M1D
- Percent Decrease in Aβ 40 in Rat Plasma (Aβ40; 0 h): 0.00%
- Percent Decrease in Aβ 40 in Rat Plasma (Aβ40; 6 h): −26.62%
- Percent Decrease in Aβ 40 in Rat Plasma (Aβ40; 12 h): −35.27%
- Percent Decrease in Aβ 40 in Rat Plasma (Aβ40; 24 h): −27.36%
- delivery to the APPTg mouse brain (in words) ([2]; SC administration): in sufficient amounts to reduce Aß in the brain
- production of Aβ in retinal cells in the presence of the peptide (in words) (Aβ): reduced

— patent publication US20220064214A1, “NOVEL PEPTIDES AND USES THEREOF” (CENNA BIOSCIENCES INC., priority 2019, published 2022)
